Assay results: ChEMBL document CHEMBL1201862, “PubChem BioAssay data set” (2004)
Active and inactive are the calls of the source. *1 amine or outer side, *2 acyl side, *3 side chain or, on linkers, in order; H or OH if unused. Where a SMILES comes first, the peptide text is derived from it. Bridges are numbered along the chain shown (N, C = ends). [ ]: non-standard residue; d: D form. ξ: configuration not given here. X1 = CC[C@H](CCC[C@@H](O)[C@@H](C)C(=O)O[C@H](C)[C@@H](C)C/C=C(C)/C(=C\C(=O)[*:1])OC)O[*:2]; NMeξIle = CC[C@H](C)C(NC)C(=O)O; NMeV = CN[C@H](C(=O)O)C(C)C; NMeS = CN[C@@H](CO)C(=O)O

How the values were obtained:
[1] = Counterscreen for […] of the human trace amine associated receptor 1 (TAAR1): Fluorescence-based cell-based high throughput dose response assay to identify nonselective Ga16 agonists.; type: functional
[2] = Luminescence Cell-Based Dose Response HTS to Identify Inhibitors of 5'UTR Stem-Loop Driven Prion Protein mRNA Translation in H4 Neuroglioblastoma Cells. [Related pubchem assays: 1827 (Project Summary), 1813 (Primary HTS)]; type: functional
[3] = biological target: T1, Trace amine-associated receptor 1 (Homo sapiens, UniProt Q96RJ0); experiment: Counterscreen for antagonists of the human trace amine associated receptor 1 (hTAAR1): Fluorescence-based cell-based high throughput dose response assay to identify TAAR1 Agonists.; type: functional
T1 sequence (Q96RJ0 whole entry): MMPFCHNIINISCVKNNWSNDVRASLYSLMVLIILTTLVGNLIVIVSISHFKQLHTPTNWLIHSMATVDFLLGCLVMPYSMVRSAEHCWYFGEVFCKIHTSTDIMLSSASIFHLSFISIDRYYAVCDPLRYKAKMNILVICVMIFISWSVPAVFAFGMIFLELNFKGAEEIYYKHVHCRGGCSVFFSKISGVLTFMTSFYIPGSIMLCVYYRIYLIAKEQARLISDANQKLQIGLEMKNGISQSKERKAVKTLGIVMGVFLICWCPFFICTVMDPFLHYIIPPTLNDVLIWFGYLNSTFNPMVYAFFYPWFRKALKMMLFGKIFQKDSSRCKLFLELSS

[4] = Counterscreen for antagonists of the human trace amine associated receptor 1 (hTAAR1): Fluorescence-based cell-based high throughput dose response assay to identify nonselective Ga16 antagonists.; type: functional
[5] = alpha-synuclein stem-loop luciferase translation blockers – H4 neuroglioma cells, luminescence, confirmation (AID 1988); type: functional, cell-based
[6] = luciferase reporter signal suppression in cells – H4 neuroglioma cells, luminescence, dose response (AID 1990); type: functional, cell-based
[7] = biological target: T1, Trace amine-associated receptor 1; experiment: Fluorescence-based cell-based high throughput dose response assay to identify antagonists of the human trace amine associated receptor 1 (TAAR1).; type: functional
Protein skinhead-1 = biological target: T2, Protein skinhead-1 (Caenorhabditis elegans, UniProt P34707); type: functional
T2 sequence (P34707 whole entry): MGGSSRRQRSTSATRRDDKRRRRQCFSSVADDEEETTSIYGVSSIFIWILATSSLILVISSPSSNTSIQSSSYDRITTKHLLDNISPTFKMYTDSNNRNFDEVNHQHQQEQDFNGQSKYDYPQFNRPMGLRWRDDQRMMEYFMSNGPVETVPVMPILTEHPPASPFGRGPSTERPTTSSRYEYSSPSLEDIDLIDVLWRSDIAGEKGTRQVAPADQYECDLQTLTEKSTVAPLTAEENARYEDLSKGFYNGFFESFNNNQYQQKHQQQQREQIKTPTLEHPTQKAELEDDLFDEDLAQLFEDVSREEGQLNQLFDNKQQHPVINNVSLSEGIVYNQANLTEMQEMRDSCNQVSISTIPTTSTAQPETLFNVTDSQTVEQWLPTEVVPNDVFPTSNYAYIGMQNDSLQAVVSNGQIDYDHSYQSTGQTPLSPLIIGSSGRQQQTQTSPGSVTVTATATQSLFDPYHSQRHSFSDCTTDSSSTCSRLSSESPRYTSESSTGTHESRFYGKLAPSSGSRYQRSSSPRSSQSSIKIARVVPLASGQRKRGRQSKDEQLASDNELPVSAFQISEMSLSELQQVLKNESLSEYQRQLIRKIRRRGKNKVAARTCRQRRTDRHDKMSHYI

cells = type: functional, cell-based; conditions: HEK-CNG
Paired box protein Pax-8 = Paired box protein Pax-8 (Homo sapiens, UniProt Q06710); experiment: PAX8 transcriptional activity inhibition in RMG-I – RMG-I cells, luciferase, cherry-pick, dose response (AID 687027); type: functional, cell-based;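 note: luciferase reporter driven by Pax8 target thyroperoxidase promoter measured by SteadyGlo luminescence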
Paired box protein Pax-8, sequence (Q06710 whole entry): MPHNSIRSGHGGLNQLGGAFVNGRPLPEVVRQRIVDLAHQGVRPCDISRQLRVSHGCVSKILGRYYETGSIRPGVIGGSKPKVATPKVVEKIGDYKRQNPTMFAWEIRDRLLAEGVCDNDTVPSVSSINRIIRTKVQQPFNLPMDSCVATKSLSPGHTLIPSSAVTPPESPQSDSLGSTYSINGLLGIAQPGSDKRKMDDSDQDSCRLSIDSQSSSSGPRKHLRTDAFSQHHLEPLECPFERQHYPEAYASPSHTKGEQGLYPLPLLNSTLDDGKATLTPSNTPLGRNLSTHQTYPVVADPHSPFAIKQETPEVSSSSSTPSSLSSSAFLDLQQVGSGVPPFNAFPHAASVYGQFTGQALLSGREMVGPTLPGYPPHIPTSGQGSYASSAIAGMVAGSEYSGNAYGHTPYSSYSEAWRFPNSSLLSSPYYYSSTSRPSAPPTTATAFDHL

Galanin receptor type 3 = Galanin receptor type 3 (Homo sapiens, UniProt O60755); experiment: Fluorescence-based cell-based primary high throughput dose response assay to identify antagonists of the Galanin Receptor 3 (GalR3).; type: functional
Galanin receptor type 3, sequence (O60755 whole entry): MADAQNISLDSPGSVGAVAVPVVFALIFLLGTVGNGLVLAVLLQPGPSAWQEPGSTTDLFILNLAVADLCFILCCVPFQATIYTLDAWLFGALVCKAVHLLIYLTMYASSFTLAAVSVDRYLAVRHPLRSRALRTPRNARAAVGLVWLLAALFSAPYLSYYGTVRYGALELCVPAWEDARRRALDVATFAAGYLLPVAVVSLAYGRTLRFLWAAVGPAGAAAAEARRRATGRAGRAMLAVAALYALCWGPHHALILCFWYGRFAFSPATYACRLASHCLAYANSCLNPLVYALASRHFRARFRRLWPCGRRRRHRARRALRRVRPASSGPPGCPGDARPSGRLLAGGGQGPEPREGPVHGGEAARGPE

[8] = non-specific 3'UTR reporter inhibition in Clone20-Shn3RL – cell-based, Renilla luciferase, cherry-picked, counter-screen for Shn3 inhibitor project, dose response (AID 624133); type: functional
[9] = reduction of Shn3 3'UTR-driven luciferase in osteoblasts – cell-based, Clone20 osteoblasts, firefly luciferase, cherry-picked, dose response (AID 624132); type: functional;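 note: firefly luciferase luminescence from reporter carrying the Shn3 3'UTR in osteoblasts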
BJ [10] = experiment: cells; type: functional, cell-based; conditions: Homo sapiens
BJ [11] = experiment: BJ-TERT fibroblast viability loss – cell-based, RAS-independent, luminescence, dose response (AID 1933); type: functional; conditions: Homo sapiens
[12] = biological target: SWI/SNF-related matrix-associated actin-dependent regulator of chromatin subfamily A member 2 (Homo sapiens, UniProt P51531); experiment: Luminescence-based cell-based high throughput dose response assay to identify activators of the function of SWI/SNF related, matrix associated, actin dependent regulator of chromatin, subfamily a, member 2 (SMARCA2, BRM).; type: functional
SWI/SNF-related matrix-associated actin-dependent regulator of chromatin subfamily A member 2, sequence (P51531 whole entry): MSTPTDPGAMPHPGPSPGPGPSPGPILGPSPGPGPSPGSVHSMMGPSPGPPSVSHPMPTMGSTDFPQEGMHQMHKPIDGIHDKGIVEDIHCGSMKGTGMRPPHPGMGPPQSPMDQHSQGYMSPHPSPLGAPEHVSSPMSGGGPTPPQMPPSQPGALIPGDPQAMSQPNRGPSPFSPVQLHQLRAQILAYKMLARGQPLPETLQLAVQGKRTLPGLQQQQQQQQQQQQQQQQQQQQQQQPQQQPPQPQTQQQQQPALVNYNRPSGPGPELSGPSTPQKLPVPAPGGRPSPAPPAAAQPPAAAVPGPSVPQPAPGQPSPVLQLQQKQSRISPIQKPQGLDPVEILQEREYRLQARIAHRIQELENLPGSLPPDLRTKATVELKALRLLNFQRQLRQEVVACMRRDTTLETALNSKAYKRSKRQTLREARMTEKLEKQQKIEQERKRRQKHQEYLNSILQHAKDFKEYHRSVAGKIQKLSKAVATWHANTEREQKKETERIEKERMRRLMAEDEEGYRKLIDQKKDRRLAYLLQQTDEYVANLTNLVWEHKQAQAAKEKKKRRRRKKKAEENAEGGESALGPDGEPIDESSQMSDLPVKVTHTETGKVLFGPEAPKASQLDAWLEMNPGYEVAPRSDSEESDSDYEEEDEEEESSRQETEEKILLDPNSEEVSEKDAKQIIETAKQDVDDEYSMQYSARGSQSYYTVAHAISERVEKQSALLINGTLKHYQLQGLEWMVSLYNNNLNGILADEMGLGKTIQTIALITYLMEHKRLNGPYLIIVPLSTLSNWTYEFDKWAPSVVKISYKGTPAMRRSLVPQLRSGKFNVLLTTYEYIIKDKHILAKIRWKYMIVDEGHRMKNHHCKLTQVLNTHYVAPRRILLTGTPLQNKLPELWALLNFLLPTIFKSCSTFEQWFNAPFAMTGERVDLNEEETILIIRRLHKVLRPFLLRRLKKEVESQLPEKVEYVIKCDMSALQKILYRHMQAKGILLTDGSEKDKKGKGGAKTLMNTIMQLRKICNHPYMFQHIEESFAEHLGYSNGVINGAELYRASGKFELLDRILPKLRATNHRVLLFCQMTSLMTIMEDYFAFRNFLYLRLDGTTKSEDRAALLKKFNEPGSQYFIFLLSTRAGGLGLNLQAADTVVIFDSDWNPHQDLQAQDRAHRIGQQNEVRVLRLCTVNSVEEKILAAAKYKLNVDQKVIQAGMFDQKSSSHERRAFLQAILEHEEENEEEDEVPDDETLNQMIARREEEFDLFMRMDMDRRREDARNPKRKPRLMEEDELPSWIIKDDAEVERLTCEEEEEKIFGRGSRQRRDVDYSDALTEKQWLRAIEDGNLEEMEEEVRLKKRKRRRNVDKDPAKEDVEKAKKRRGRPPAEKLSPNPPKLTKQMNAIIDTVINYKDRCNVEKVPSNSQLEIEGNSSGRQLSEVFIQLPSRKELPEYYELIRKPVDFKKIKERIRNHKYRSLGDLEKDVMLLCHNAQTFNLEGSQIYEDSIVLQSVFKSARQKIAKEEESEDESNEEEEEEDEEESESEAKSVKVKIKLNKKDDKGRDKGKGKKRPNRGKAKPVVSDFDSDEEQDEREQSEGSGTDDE

[13] = DRD fibroblast viability loss – cell-based, non-viral oncogenic, luminescence, dose response (AID 1934); type: functional; conditions: Homo sapiens
BJ [14] = experiment: growth inhibition of engineered Ras-driven BJ cells – cell-based, alamar blue fluorescence, cherrypicked samples, dose response (AID 2631); type: functional; conditions: Homo sapiens;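 note: confirmatory dose-response assay in RAS-dependent BJ fibroblasts engineered with TERT, LT and ST, with cytotoxicity read by fluorescence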
BJ [15] = experiment: BJ-TERT-LT-ST fibroblast viability loss – cell-based, RAS-independent, luminescence, dose response (AID 1935); type: functional; conditions: Homo sapiens;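 note: BJ fibroblasts immortalized with TERT plus LT and ST oncogenes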
[16] = Luminescence Cell-Based Dose Retest to Confirm Inhibitors of Cancer Stem Cells. [Related pubchem assays (depositor defined):AID2717, AID2721]; type: functional; conditions: Homo sapiens
[17] = Counterscreen for activators of the function of SWI/SNF related, matrix associated, actin dependent regulator of chromatin, subfamily a, member 2 (SMARCA2, BRM): Luminescence-based cell-based high throughput dose response assay to identify non-selective compounds using the VP16 reporter assay.; type: functional
INS1 = experiment: INS-1E survival protection against cytokine death – cell-based, luminescence, retest, dose response (AID 449756); type: functional; conditions: Rattus norvegicus;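 note: cell death triggered by IL-1 beta plus TNF-alpha plus IFN-gamma mixture; protective hits raise ATP signal compared with cytokine alone wells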
[18] = biological target: Heat shock protein HSP 90-alpha (Homo sapiens, UniProt P07900); type: functional, organism-based
[19] = Luminescence Cell-Based Dose Response to Identify Activators of Luciferase Translation or Activity in H4-C Neuroglioblastoma Cells. [Related pubchem assays: 1829 (Project Summary), 1814 (Primary HTS)]; type: functional
[20] = Luminescence Cell-Based Dose Confirmation to Identify Activators of 5'UTR Stem-Loop Driven Alpha-Synuclein mRNA Translation in H4 Neuroglioblastoma Cells. [Related pubchem assays: 1829 (Project Summary), 1814 (Primary HTS)]; type: functional
[21] = Luminescence Cell-Based Dose Response HTS to Identify Activators of Luciferase Translation or Activity in H4 […] Cells. [Related pubchem assays: 1829 (Project Summary), 1814 (Primary HTS)]; type: functional
Caspase-6 [22] = biological target: T3, Caspase-6 (Homo sapiens, UniProt P55212); experiment: inhibition of CASP6 peptide cleavage – biochemical, VEID-R110 fluorescence, dry powder retest, dose response (AID 743332)
T3 sequence (P55212 whole entry): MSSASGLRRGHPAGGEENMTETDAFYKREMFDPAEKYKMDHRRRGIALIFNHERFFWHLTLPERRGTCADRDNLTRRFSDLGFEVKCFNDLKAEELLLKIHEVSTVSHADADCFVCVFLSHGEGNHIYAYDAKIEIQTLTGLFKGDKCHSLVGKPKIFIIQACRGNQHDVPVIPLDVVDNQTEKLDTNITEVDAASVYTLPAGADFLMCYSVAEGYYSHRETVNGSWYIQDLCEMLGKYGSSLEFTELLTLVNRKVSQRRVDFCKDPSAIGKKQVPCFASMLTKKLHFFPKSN

Caspase-6 [23] = biological target: T3, Caspase-6; experiment: inhibition of CASP6 peptide cleavage – biochemical, VEID-R110 fluorescence, cherry-pick, dose response (AID 720632)
[24] = Luminescence Cell-Based Dose Response to Identify Activators of 5'UTR Stem-Loop Driven Prion Protein mRNA Translation in H4-C Neuroglioblastoma Cells. [Related pubchem assays: 1829 (Project Summary), 1814 (Primary HTS)]; type: functional
Caspase-7 = Caspase-7 (Homo sapiens, UniProt P55210); experiment: caspase-7 enzyme inhibition, selectivity check – biochemical, DEVD-R110 fluorescence, cherry-pick, selectivity assay for caspase-6 inhibitor project, dose response (AID 743295); type: functional
Caspase-7, sequence (P55210 24-198 limits assumed): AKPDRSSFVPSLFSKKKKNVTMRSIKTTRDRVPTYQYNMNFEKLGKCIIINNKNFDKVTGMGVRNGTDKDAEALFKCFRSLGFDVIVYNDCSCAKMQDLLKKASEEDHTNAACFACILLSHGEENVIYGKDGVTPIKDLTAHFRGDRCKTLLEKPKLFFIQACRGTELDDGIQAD
Caspase-7, sequence (P55210 207-303 limits assumed): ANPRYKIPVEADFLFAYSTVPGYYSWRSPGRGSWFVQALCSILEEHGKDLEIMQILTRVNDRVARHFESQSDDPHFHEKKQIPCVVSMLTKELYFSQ

H4 = experiment: Luminescence Cell-Based Dose Response HTS to Identify Activators of 5'UTR Stem-Loop Driven Prion Protein mRNA Translation in H4 Neuroglioblastoma Cells. [Related pubchem assays: 1829 (Project Summary), 1814 (Primary HTS)]; type: functional; conditions: Homo sapiens

For Cc1ccccc1N(C(=O)c1snc(C(N)=O)c1N)C(C(=O)NC1CCCCC1)c1ccc(O)cc1 (configuration not stated), the EC50 [1] was > 29.9 µM (inactive), the EC50 [2] was > 120 µM (not active) and the EC50 [3] was > 29.9 µM (inactive). For the same molecule, the IC50 [4] was > 29.9 µM (inactive), the EC50 [5] was 77.7 µM (active) and the EC50 [6] was 12.8 µM (active). The IC50 [7] was 3.16 µM (active).

For CC[C@@H]1CCC[C@@H](O)[C@@H](C)C(=O)O[C@H](C)[C@@H](C)C/C=C(C)/C(OC)=C\C(=O)N(C)C([C@@H](C)CC)C(=O)N(C)[C@@H](C(C)C)C(=O)N(C)[C@@H](COC)C(=O)N2CCC[C@H]2C(=O)N(C)[C@@H](C(C)C)C(=O)N2CCC[C@H]2C(=O)O1 (some centres not stated) ([NMeξIle][NMeV][NMeS](Me)P[NMeV]P; linker N-C via X1), the IC50 (Protein skinhead-1) was 57.6 µM (inactive), the EC50 (cells) was > 29.9 µM (inactive) and the AC50 (Paired box protein Pax-8) was < 0.26 µM (active). The IC50 (Galanin receptor type 3) was 0.0171 µM (active), the AC50 [8] was 0.317 µM (active) and the AC50 [9] was < 0.26 µM (active).

For O=C1C=C(c2cccs2)C[C@H](c2ccccc2)[C@H]1n1nnc([N+](=O)[O-])n1, the EC50 (BJ [10]) was 9.02 µM (inconclusive), the EC50 (BJ [11]) was 10.3 µM (inconclusive) and the EC50 [12] was > 91.2 µM (inactive). For the same molecule, the EC50 [13] was 5.51 µM (inconclusive), the EC50 (BJ [14]) was 0.242 µM (active) and the EC50 (BJ [15]) was 3.85 µM (inconclusive). For the same molecule, the AC50 [16] was 0.835 µM (active), the EC50 [17] was > 91.2 µM (inactive) and the AC50 (INS1) was 4.33 µM (active). The AC50 [18] was 7.95 µM (active).

With [O-][n+]1onc2c1CCc1c-2nn(-c2ccccc2Cl)[n+]1[O-] the EC50 [19] was 1.41 µM (active), the EC50 [20] was 0.766 µM (active) and the EC50 [21] was < 0.1 µM (inconclusive). For the same molecule, the AC50 (Caspase-6 [22]) was 4.66 µM (active), the AC50 (Caspase-6 [23]) was 0.651 µM (active) and the EC50 [24] was > 12 µM (not active). For the same molecule, the AC50 (INS1) was 6.94 µM (active), the AC50 (Caspase-7) was > 70 µM (inactive) and the EC50 (H4) was > 120 µM (not active).
